Read-outs that look alike come from different tables or passages of the source.
Experiments:
[1] = test system: human leukemia cell lines; assay: NCI-60 growth inhibition, leukemia cell lines; details: NCI panel
SK-MEL-2 = assay: NCI-60 growth inhibition: SK-MEL-2 (Melanoma); format: cell-based, human
NCI-H522 = assay: NCI-60 growth inhibition: NCI-H522 (Non-Small-Cell Lung Cancer)
K-562 = assay: NCI-60 growth inhibition: K-562 (Leukemia); format: cell-based, human
SK-MEL-28 = assay: NCI-60 growth inhibition: SK-MEL-28 (Melanoma); format: cell-based, human
HCT-15 = assay: NCI-60 growth inhibition: HCT-15 (Colon Cancer); format: cell-based, human
MDA-MB-435 = assay: NCI-60 growth inhibition: MDA-MB-435 (Melanoma); format: cell-based, human
OVCAR-3 = assay: NCI-60 growth inhibition: OVCAR-3 (Ovarian Cancer); format: cell-based, human
SNB-75 = assay: NCI-60 growth inhibition: SNB-75 (CNS Cancer); format: cell-based, human
SN12C = assay: NCI-60 growth inhibition: SN12C (Renal Cancer); format: cell-based, human
786-0 = assay: NCI-60 growth inhibition: 786-0 (Renal Cancer); format: cell-based, human
NCI-H23 = assay: NCI-60 growth inhibition: NCI-H23 (Non-Small-Cell Lung Cancer); format: cell-based, human
COLO 205 = assay: NCI-60 growth inhibition: COLO 205 (Colon Cancer); format: cell-based, human
MDA-MB-468 = assay: NCI-60 growth inhibition: MDA-MB-468 (Breast Cancer); format: cell-based, human
PC-3 = assay: NCI-60 growth inhibition: PC-3 (Prostate Cancer); format: cell-based, human
EKVX = assay: NCI-60 growth inhibition: EKVX (Non-Small-Cell Lung Cancer); format: cell-based, human
SNB-19 = assay: NCI-60 growth inhibition: SNB-19 (CNS Cancer); format: cell-based, human
HS 578T = assay: NCI-60 growth inhibition: HS 578T (Breast Cancer); format: cell-based, human
UO-31 = assay: NCI-60 growth inhibition: UO-31 (Renal Cancer); format: cell-based, human
SW-620 = assay: NCI-60 growth inhibition: SW-620 (Colon Cancer); format: cell-based, human
BT-549 = assay: NCI-60 growth inhibition: BT-549 (Breast Cancer); format: cell-based, human
IGROV1 = assay: NCI-60 growth inhibition: IGROV1 (Ovarian Cancer); format: cell-based, human
TK-10 = assay: NCI-60 growth inhibition: TK-10 (Renal Cancer); format: cell-based, human
CAKI-1 = assay: NCI-60 growth inhibition: CAKI-1 (Renal Cancer); format: cell-based, human
CCRF-CEM = assay: NCI-60 growth inhibition: CCRF-CEM (Leukemia); format: cell-based, human
[2] = test system: MV4-11 cell line (myelomonocytic leukemia); details: MV4-11 cells; for LD50, 7AAD (μM) 24 h / LD50, Alamar blue (μM) 24 h / LD50, YOPRO (μM) 24 h: MMB-TDZD analogs (Table 2)
MOLT-4 = assay: NCI-60 growth inhibition: MOLT-4 (Leukemia); format: cell-based, human
A498 = assay: NCI-60 growth inhibition: A498 (Renal Cancer); format: cell-based, human
HL-60(TB) = assay: NCI-60 growth inhibition: HL-60(TB) (Leukemia); format: cell-based, human; details: HL-60(TB) (Leukemia); read-out: GI50
U251 = assay: NCI-60 growth inhibition: U251 (CNS Cancer); format: cell-based, human
MDA-MB-231/ATCC = assay: NCI-60 growth inhibition: MDA-MB-231/ATCC (Breast Cancer); format: cell-based, human
OVCAR-8 = assay: NCI-60 growth inhibition: OVCAR-8 (Ovarian Cancer); format: cell-based, human
NCI-H460 = assay: NCI-60 growth inhibition: NCI-H460 (Non-Small-Cell Lung Cancer); format: cell-based, human
RXF 393 = assay: NCI-60 growth inhibition: RXF 393 (Renal Cancer); format: cell-based, human
UACC-257 = assay: NCI-60 growth inhibition: UACC-257 (Melanoma); format: cell-based, human
SF-268 = assay: NCI-60 growth inhibition: SF-268 (CNS Cancer); format: cell-based, human
ACHN = assay: NCI-60 growth inhibition: ACHN (Renal Cancer); format: cell-based, human
T-47D = assay: NCI-60 growth inhibition: T-47D (Breast Cancer); format: cell-based, human
UACC-62 = assay: NCI-60 growth inhibition: UACC-62 (Melanoma); format: cell-based, human
RPMI-8226 = assay: NCI-60 growth inhibition: RPMI-8226 (Leukemia); format: cell-based, human
HCT-116 = assay: NCI-60 growth inhibition: HCT-116 (Colon Cancer)
MCF7 = assay: NCI-60 growth inhibition: MCF7 (Breast Cancer); format: cell-based, human
HOP-92 = assay: NCI-60 growth inhibition: HOP-92 (Non-Small-Cell Lung Cancer); format: cell-based, human
OVCAR-5 = assay: NCI-60 growth inhibition: OVCAR-5 (Ovarian Cancer); format: cell-based, human
OVCAR-4 = assay: NCI-60 growth inhibition: OVCAR-4 (Ovarian Cancer); format: cell-based, human
HT29 = assay: NCI-60 growth inhibition: HT29 (Colon Cancer); format: cell-based, human
M14 = assay: NCI-60 growth inhibition: M14 (Melanoma); format: cell-based, human
MALME-3M = assay: NCI-60 growth inhibition: MALME-3M (Melanoma); format: cell-based, human
SK-MEL-5 = assay: NCI-60 growth inhibition: SK-MEL-5 (Melanoma); format: cell-based, human
SF-539 = assay: NCI-60 growth inhibition: SF-539 (CNS Cancer); format: cell-based, human
LOX IMVI = assay: NCI-60 growth inhibition: LOX IMVI (Melanoma); format: cell-based, human
DU-145 = assay: NCI-60 growth inhibition: DU-145 (Prostate Cancer); format: cell-based, human

Compound: C=C1C(=O)O[C@H]2[C@H]1CC/C(COC(=O)NCc1ccc(Cn3c(=O)sn(CCCC#N)c3=O)cc1)=C\CC[C@@]1(C)O[C@@H]21 [BSK-226]
- potency against leukemia cell lines (GI50 <1.0) [1]: comparably potent against 4 out of 5 leukemia cell lines
- GI50 (SK-MEL-2): 4830 nM
- GI50 (NCI-H522; NCI-H522 (Non-Small-Cell Lung Cancer)): 530 nM
- GI50 (NCI-H522; NCI-H522 (non-small-cell lung cancer)): 530 nM
- GI50 (K-562): 720 nM
- GI50 (SK-MEL-28): 1690 nM
- GI50 (HCT-15): 1940 nM
- GI50 (MDA-MB-435): 1800 nM
- GI50 (OVCAR-3): 770 nM
- GI50 (SNB-75): 2030 nM
- GI50 (SN12C): 1360 nM
- GI50 (786-0): 1480 nM
- GI50 (NCI-H23): 2330 nM
- GI50 (COLO 205): 2040 nM
- GI50 (MDA-MB-468; MDA-MB-468 (Breast Cancer), read-out: GI50): 1530 nM
- GI50 (PC-3): 2130 nM
- GI50 (EKVX): 2820 nM
- GI50 (SNB-19): 4840 nM
- GI50 (HS 578T): 5640 nM
- GI50 (UO-31): 1400 nM
- GI50 (SW-620): 1230 nM
- GI50 (BT-549): 1480 nM
- GI50 (IGROV1): 1780 nM
- GI50 (TK-10): 1750 nM
- GI50 (CAKI-1): 2050 nM
- GI50 (CCRF-CEM): 570 nM
- LD50, 7AAD (μM) 24 h [2]: 0.75 µM
- LD50, Alamar blue (μM) 24 h [2]: 0.45 µM
- LD50, YOPRO (μM) 24 h [2]: 0.37 µM
- GI50 (MOLT-4): 1500 nM
- GI50 (A498): 2830 nM
- GI50 (HL-60(TB)): 960 nM
- GI50 (U251): 5050 nM
- GI50 (MDA-MB-231/ATCC): 1720 nM
- GI50 (OVCAR-8): 2320 nM
- GI50 (NCI-H460): 11300 nM
- GI50 (RXF 393): 1350 nM
- GI50 (UACC-257): 1610 nM
- GI50 (SF-268): 2630 nM
- GI50 (ACHN): 1660 nM
- GI50 (T-47D): 1970 nM
- GI50 (UACC-62): 1440 nM
- GI50 (RPMI-8226): 760 nM
- GI50 (HCT-116; HCT-116 (Colon Cancer)): 560 nM
- GI50 (HCT-116; HCT-116 (colon cancer)): 560 nM
- GI50 (MCF7): 1710 nM
- GI50 (HOP-92): 1100 nM
- GI50 (OVCAR-5): 2640 nM
- GI50 (OVCAR-4): 1670 nM
- GI50 (HT29): 2460 nM
- GI50 (M14): 1930 nM
- GI50 (MALME-3M): 1340 nM
- GI50 (SK-MEL-5): 3720 nM
- GI50 (SF-539): 1730 nM
- GI50 (LOX IMVI): 1580 nM
- GI50 (DU-145): 1640 nM

Compound: C=C1C(=O)O[C@H]2[C@H]1CC/C(COC(=O)NCc1ccc(Cn3c(=O)sn(-c4ccccc4)c3=O)cc1)=C\CC[C@@]1(C)O[C@@H]21 [BSK-197]
- GI50 (SK-MEL-2; Homo sapiens): 2390 nM
- GI50 (NCI-H522; Homo sapiens, NCI-H522): 1740 nM
- GI50 (K-562; Homo sapiens, K562): 1800 nM
- GI50 (SK-MEL-28; Homo sapiens): 1700 nM
- GI50 (HCT-15; Homo sapiens): 1940 nM
- GI50 (MDA-MB-435; Homo sapiens): 2070 nM
- GI50 (OVCAR-3; Homo sapiens): 1680 nM
- GI50 (SNB-75; Homo sapiens): 2370 nM
- GI50 (SN12C; Homo sapiens): 2130 nM
- GI50 (786-0; Homo sapiens): 1810 nM
- GI50 (NCI-H23; Homo sapiens): 3550 nM
- GI50 (COLO 205; Homo sapiens): 1770 nM
- GI50 (MDA-MB-468; Homo sapiens, MDA-MB-468): 1170 nM
- GI50 (PC-3; Homo sapiens): 2360 nM
- GI50 (EKVX; Homo sapiens): 1850 nM
- GI50 (SNB-19; Homo sapiens): 4260 nM
- GI50 (HS 578T; Homo sapiens): 4140 nM
- GI50 (UO-31; Homo sapiens): 1680 nM
- GI50 (SW-620; Homo sapiens): 1910 nM
- GI50 (BT-549; Homo sapiens): 2140 nM
- GI50 (IGROV1; Homo sapiens, IGROV-1): 2090 nM
- GI50 (TK-10; Homo sapiens): 2210 nM
- GI50 (CAKI-1; Homo sapiens): 2490 nM
- GI50 (CCRF-CEM; Homo sapiens): 830 nM
- LD50, 7AAD (μM) 24 h [2]: 1.26 µM
- LD50, Alamar blue (μM) 24 h [2]: 2.02 µM
- LD50, YOPRO (μM) 24 h [2]: 1.17 µM
- LD50 ([2]; values in text): 980 nM
- GI50 (MOLT-4; Homo sapiens): 2200 nM
- GI50 (A498; Homo sapiens): 3910 nM
- GI50 (MDA-MB-231/ATCC; Homo sapiens): 1710 nM
- GI50 (OVCAR-8; Homo sapiens): 2830 nM
- GI50 (NCI-H460; Homo sapiens): 3670 nM
- GI50 (RXF 393; Homo sapiens): 1750 nM
- GI50 (UACC-257; Homo sapiens): 1860 nM
- GI50 (SF-268; Homo sapiens): 2210 nM
- GI50 (ACHN; Homo sapiens): 1640 nM
- GI50 (T-47D; Homo sapiens, T47D): 1980 nM
- GI50 (UACC-62; Homo sapiens): 2040 nM
- GI50 (RPMI-8226; Homo sapiens): 2030 nM
- GI50 (HCT-116; Homo sapiens, HCT-116): 1520 nM
- GI50 (MCF7; Homo sapiens): 1590 nM
- GI50 (HOP-92; Homo sapiens): 1820 nM
- GI50 (OVCAR-5; Homo sapiens): 2510 nM
- GI50 (OVCAR-4; Homo sapiens): 2740 nM
- GI50 (HT29; Homo sapiens, HT-29): 2150 nM
- GI50 (M14; Homo sapiens): 1800 nM
- GI50 (MALME-3M; Homo sapiens): 2090 nM
- GI50 (SK-MEL-5; Homo sapiens): 3240 nM
- GI50 (SF-539; Homo sapiens): 1570 nM
- GI50 (LOX IMVI; Homo sapiens): 1620 nM
- GI50 (DU-145; Homo sapiens): 1710 nM
